From US20260034112A1, “MULTI-CYCLIC IRAK1 AND IRAK4 INHIBITING COMPOUNDS AND USES THEREOF” (CHILDREN'S HOSPITAL MEDICAL CENTER, priority 2022, published 2026)
Where two headings read alike, the source gives them in different places.

Key:
[1] = test system: MDS/AML cell lines and patient-derived samples; assay: Clonogenic assay (colony formation in methylcellulose); assay type: cell-based, human; details: for Inhibition of colony formation: MDSL, TF1, AML1714, AML1294, methylcellulose
[2] = test system: IRAK1 phosphorylation in MDS/AML cells; assay: Immunoblotting for phospho-IRAK1; assay type: cell-based, human; details: MDSL cells and patient-derived AML(1714), 10 μM, 24 hours
[3] = test system: NF-kB activity upon TLR2 stimulation with PAM3CSK4 in THP1-Blue NF-kB SEAP reporter cells; assay: THP1-Blue NF-kB SEAP reporter assay, TLR2 stimulation with PAM3CSK4; assay type: cell-based, human
[4] = early phase trials, cited from earlier work
[5] = test system: NF-kB activity upon IL-1β stimulation (IL-1R) in THP1 NF-kB reporter cells; assay: THP1 NF-kB reporter assay, IL-1β stimulation; assay type: cell-based, human; details: for IC50: Homo sapiens
THP1 and MDSL cells = assay: Growth curves with IRAK4 inhibitors; assay type: cell-based, human; details: IRAK1KO versus WT MDSL (10 μM) and THP1 (20 μM)
[6] = Homo sapiens, THP-1, THP1 NF-kB reporter cells, read-out: IC50 vs. Pam3CSK4 (TLR2-mediated NF-kB activation)
[7] = THP1 NF-kB reporter cells, result in words

IC50 [3, 6] | IC50 ([5]; THP-1, THP1 NF-kB reporter cells, read-out: IC50 vs. IL-1β (NF-kB activation)) | IC50 ([5]; THP-1, Table 1, unit nM, read-out: THP-1 NFkB IL1B IC50) | IC50 ([3]; Homo sapiens, THP-1, Table 1, unit nM, read-out: THP-1 NFkB PAM IC50) | IC50 ([3]; THP1 NF-kB reporter cells, read-out: IC50 vs. Pam3CSK4 (TLR2-mediated NF-kB activation)) | Compound | Sensitivity of IRAK1KO MDS/AML cells (growth, colony formation) ([1]; IRAK1KO versus WT THP1 and MDSL cells) | Inhibition of colony formation [1] | IRAK1 phosphorylation [2] | Complete or partial response rates ([4]; HR-MDS and AML patients) | AML patients with spliceosome mutations reaching CR or CRh [4] | HR-MDS patients achieving a CR [4] | Span (extent of suppression of signaling through the IL-1R) ([5]; THP1 NF-kB reporter cells, IL-1β) | Suppression of NF-kB signaling through the IL-1 receptor [5, 7] | LOG (IL1B) ([5]; Table 1, log of IL1B IC50) | Sensitivity of IRAK1KO MDS/AML cells (growth curves) (THP1 and MDSL cells) | Suppression of NF-kB signaling through TLR2 [3, 7] | LOG (PAM) ([3]; Table 1, log of PAM IC50)
500 nM |  |  |  |  | Cc1cc(-c2nc(C(=O)Nc3cc4oc(N5CCOCC5)nc4nc3N3CC[C@@H](O)C3)co2)ccn1 [CA-4948, emavusertib] | more sensitive | dose-dependent, yet incomplete, inhibition of colony formation | increased IRAK1 phosphorylation | ~40% | 40% | 57% |  |  |  |  |  | 
7.2 nM | 5.7 nM | 678 nM | 496 nM | 7 nM | CC[C@@H]1[C@H](F)C(=O)N[C@@H]1COc1nccc2cc(C(N)=O)c(OC)cc12 [PF-06650833, Zimlovisertib] |  | inhibition of colony formation by MDSL and TF1 cells but was less effective at suppressing the patient-derived AML samples |  |  |  |  | 75% | do not fully suppress | 2.83 | A similar effect was also observed | fully suppress | 2.70
